The results in this text go back to patent US11390582B2, “Polymorphs of 1-(4-benzyloxy-benzyl)-3-methyl-thiourea” (Seoul National University R&DB Foundation, priority 2019, dated 2022).

What all share (format): physicochemical
Data set [1] can be described thus: Hygroscopicity test through dynamic vapor sorption (DVS). Conditions: for Hygroscopicity (25° C./80% RH): DVS; for Morphology Change: after DVS hygroscopicity test. An excerpt: Experimental Example 3. Hygroscopicity Test Through Dynamic Vapor Sorption (DVS)
From a pharmaceutical point of view, it is desired to maintain the initial moisture and morphology without absorbing moisture even in a moisture environment.

Data set [2] in a line: Stability test of crystalline forms A and B (25° C./60% RH and 40° C./75% RH, 1 week). Conditions: for Increase of impurities under given conditions: 25° C./60% RH and 40° C./75% RH; for Increase of impurities under given conditions / Change of crystalline form: in words. An excerpt:
Experimental Example 4. Stability Test
(§1) From a pharmaceutical point of view, the stability of an active ingredient is very important. It is not preferable pharmaceutically that impurities are excessively produced or the crystalline form is changed under a storage condition.

The nature of data set [3]: Stability test under storage condition at room temperature (crystalline form A, up to 6 months). Conditions: for Crystalline form / Purity (%): room temperature storage.
Text: Experimental Example 5. Stability Test Under Storage Condition
as §1

Setting [4] is: storage conditions at room temperature, in words.

Each structure is given as a SMILES string.

On to `CNC(=S)NCc1ccc(OCc2ccccc2)cc1` [Crystalline form A, 1-(4-benzyloxy-benzyl)-3-methyl-thiourea], for which the “Moisture content compared between forms” value in data set [1] (80% moisture condition, in words) is “contains less moisture under 80% moisture condition than crystalline form B”. In data set [1], the “Hygroscopicity (25° C./80% RH)” value was 0.07%. The “Morphology Change” value in data set [1] was “No”. Besides, the “Increase of impurities under given conditions” value in data set [2] is “impurities were not increased”. The Final crystalline form entry in data set [2] (25° C./60% RH, 1 week) is “form A”; in data set [2] (40° C./75% RH, 1 week) it was “form A”. Besides, the “HPLC Purity (area %)” value in data set [2] (25° C./60% RH, 1 week) was 99.71 area %; in data set [2] (40° C./75% RH, 1 week), 99.66 area %; in data set [2] (Initial), 99.55 area %. Moreover, the Crystalline form entry in data set [3] (1 month), in data set [3] (3 months), in data set [3] (6 months) and in data set [3] (Initial) was “form A” each time. The “Purity (%)” value in data set [3] (1 month), in data set [3] (3 months), in data set [3] (6 months) and in data set [3] (Initial) was 100.0% in each case. Further, the “Change of crystalline form” value in data set [3] (setting [4]) is on record as “the crystalline form was not changed”. Moreover, the Increase of impurities result in data set [3] (setting [4]) was “impurities were not increased”.
Turning to `CNC(=S)NCc1ccc(OCc2ccccc2)cc1` [Crystalline form B, 1-(4-benzyloxy-benzyl)-3-methyl-thiourea], the “Hygroscopicity (25° C./80% RH)” value in data set [1] came out at 0.20%. For the same compound, the “Morphology Change” value in data set [1] was “No”. Besides, the “Increase of impurities under given conditions” value in data set [2] is on record as “impurities were not increased”. For the same compound, the Final crystalline form entry in data set [2] (25° C./60% RH, 1 week) is “forms A + B”; in data set [2] (40° C./75% RH, 1 week), “form A”. The “HPLC Purity (area %)” value was 99.70 area % in data set [2] (25° C./60% RH, 1 week); 99.72 area % in data set [2] (40° C./75% RH, 1 week); 99.49 area % in data set [2] (Initial). Besides, the “Change of crystalline form” value in data set [2] (acceleration condition) is recorded as “all changed into crystalline form A”; in data set [2] (storage condition at room temperature) it was “being changed into crystalline form A”.
